Data: ChEMBL document CHEMBL3797052 (Eur J Med Chem, 2016)

tested on: MDA-MB-468; experiment: Antiproliferative activity against human MDA-MB-468 cells assessed as cell growth at 10^-6 M after 48 hrs by sulforhodamine B assay; format: functional; conditions: MDA-MB-468, 48 h, read-out: Activity

Structure (SMILES) | growth at 1 µM [%]
CNC(=O)c1cc(Oc2ccc3nc(NC(=O)c4cc(C(F)(F)F)cc(C(F)(F)F)c4)sc3c2)ccn1 | 95

tested on: NCI-H23; experiment: Antiproliferative activity against human NCI-H23 cells assessed as cell growth at 10^-8 M after 48 hrs by sulforhodamine B assay; format: functional; conditions: NCI-H23, 48 h, read-out: Activity

Structure (SMILES) | growth at 0.01 µM [%]
CNC(=O)c1cc(Oc2ccc3nc(NC(=O)c4cc(C(F)(F)F)cc(C(F)(F)F)c4)sc3c2)ccn1 | 96

tested on: not listed separately; experiment: Antiproliferative activity against human SF295 cells assessed as cell growth at 10^-8 M after 48 hrs by sulforhodamine B assay; format: functional; conditions: SF-295, 48 h, read-out: Activity

Structure (SMILES) | growth at 0.01 µM [%]
CNC(=O)c1cc(Oc2ccc3nc(NC(=O)c4cc(C(F)(F)F)cc(C(F)(F)F)c4)sc3c2)ccn1 | 93

tested on: not listed separately; experiment: Antiproliferative activity against human OVCAR4 cells assessed as cell growth at 10^-4 M after 48 hrs by sulforhodamine B assay; format: functional; conditions: OVCAR-4, 48 h, read-out: Activity

Structure (SMILES) | growth at 100 µM [%]
CNC(=O)c1cc(Oc2ccc3nc(NC(=O)c4cc(C(F)(F)F)cc(C(F)(F)F)c4)sc3c2)ccn1 | -13

tested on: not listed separately; experiment: Antiproliferative activity against human UACC257 cells assessed as cell growth at 10^-7 M after 48 hrs by sulforhodamine B assay; format: functional; conditions: UACC-257, 48 h, read-out: Activity

Structure (SMILES) | growth at 0.1 µM [%]
CNC(=O)c1cc(Oc2ccc3nc(NC(=O)c4cc(C(F)(F)F)cc(C(F)(F)F)c4)sc3c2)ccn1 | 95

tested on: not listed separately; experiment: Antiproliferative activity against human SKOV3 cells assessed as cell growth at 10^-8 M after 48 hrs by sulforhodamine B assay; format: functional; conditions: SK-OV-3, 48 h, read-out: Activity

Structure (SMILES) | growth at 0.01 µM [%]
CNC(=O)c1cc(Oc2ccc3nc(NC(=O)c4cc(C(F)(F)F)cc(C(F)(F)F)c4)sc3c2)ccn1 | 100

tested on: not listed separately; experiment: Antiproliferative activity against human SW620 cells assessed as cell growth at 10^-4 M after 48 hrs by sulforhodamine B assay; format: functional; conditions: SW-620, 48 h, read-out: Activity

Structure (SMILES) | growth at 100 µM [%]
CNC(=O)c1cc(Oc2ccc3nc(NC(=O)c4cc(C(F)(F)F)cc(C(F)(F)F)c4)sc3c2)ccn1 | -10

tested on: not listed separately; experiment: Antiproliferative activity against human HOP92 cells assessed as cell growth at 10^-7 M after 48 hrs by sulforhodamine B assay; format: functional; conditions: HOP-92, 48 h, read-out: Activity

Structure (SMILES) | growth at 0.1 µM [%]
CNC(=O)c1cc(Oc2ccc3nc(NC(=O)c4cc(C(F)(F)F)cc(C(F)(F)F)c4)sc3c2)ccn1 | 86

tested on: not listed separately; experiment: Antiproliferative activity against human HCC2998 cells assessed as cell growth at 10^-6 M after 48 hrs by sulforhodamine B assay; format: functional; conditions: HCC 2998, 48 h, read-out: Activity

Structure (SMILES) | growth at 1 µM [%]
CNC(=O)c1cc(Oc2ccc3nc(NC(=O)c4cc(C(F)(F)F)cc(C(F)(F)F)c4)sc3c2)ccn1 | 102

tested on: not listed separately; experiment: Antiproliferative activity against human UACC62 cells assessed as growth inhibition after 48 hrs by sulforhodamine B assay; format: functional; conditions: UACC-62, 48 h

Structure (SMILES) | GI50 [µM] | TGI [µM]
CNC(=O)c1cc(Oc2ccc3nc(NC(=O)c4cc(C(F)(F)F)cc(C(F)(F)F)c4)sc3c2)ccn1 | 2.71 | 12.1

same assay, conditions: UACC-62, 48 h, read-out: LC50 (the source's name)

Structure (SMILES) | CC50 [µM]
CNC(=O)c1cc(Oc2ccc3nc(NC(=O)c4cc(C(F)(F)F)cc(C(F)(F)F)c4)sc3c2)ccn1 | 80.5

tested on: MDA-MB-468; experiment: Antiproliferative activity against human MDA-MB-468 cells assessed as cell growth at 10^-4 M after 48 hrs by sulforhodamine B assay; format: functional; conditions: MDA-MB-468, 48 h, read-out: Activity

Structure (SMILES) | growth at 100 µM [%]
CNC(=O)c1cc(Oc2ccc3nc(NC(=O)c4cc(C(F)(F)F)cc(C(F)(F)F)c4)sc3c2)ccn1 | -30

tested on: not listed separately; experiment: Antiproliferative activity against human MOLT4 cells assessed as cell growth at 10^-8 M after 48 hrs by sulforhodamine B assay; format: functional; conditions: MOLT-4, 48 h, read-out: Activity

Structure (SMILES) | growth at 0.01 µM [%]
CNC(=O)c1cc(Oc2ccc3nc(NC(=O)c4cc(C(F)(F)F)cc(C(F)(F)F)c4)sc3c2)ccn1 | 86

tested on: ACHN; experiment: Antiproliferative activity against human ACHN cells assessed as cell growth at 10^-7 M after 48 hrs by sulforhodamine B assay; format: functional; conditions: read-out: Activity

Structure (SMILES) | growth at 0.1 µM [%]
CNC(=O)c1cc(Oc2ccc3nc(NC(=O)c4cc(C(F)(F)F)cc(C(F)(F)F)c4)sc3c2)ccn1 | 100

tested on: not listed separately; experiment: Antiproliferative activity against human BT549 cells assessed as cell growth at 10^-6 M after 48 hrs by sulforhodamine B assay; format: functional; conditions: BT-549, 48 h, read-out: Activity

Structure (SMILES) | growth at 1 µM [%]
CNC(=O)c1cc(Oc2ccc3nc(NC(=O)c4cc(C(F)(F)F)cc(C(F)(F)F)c4)sc3c2)ccn1 | 92

tested on: K562; experiment: Antiproliferative activity against human K562 cells assessed as cell growth at 10^-6 M after 48 hrs by sulforhodamine B assay; format: functional; conditions: K562, 48 h, read-out: Activity

Structure (SMILES) | growth at 1 µM [%]
CNC(=O)c1cc(Oc2ccc3nc(NC(=O)c4cc(C(F)(F)F)cc(C(F)(F)F)c4)sc3c2)ccn1 | 102

tested on: not listed separately; experiment: Antiproliferative activity against human HCT15 cells assessed as cell growth at 10^-4 M after 48 hrs by sulforhodamine B assay; format: functional; conditions: HCT-15, 48 h, read-out: Activity

Structure (SMILES) | growth at 100 µM [%]
CNC(=O)c1cc(Oc2ccc3nc(NC(=O)c4cc(C(F)(F)F)cc(C(F)(F)F)c4)sc3c2)ccn1 | -29

tested on: not listed separately; experiment: Antiproliferative activity against human MOLT4 cells assessed as cell growth at 10^-7 M after 48 hrs by sulforhodamine B assay; format: functional; conditions: MOLT-4, 48 h, read-out: Activity

Structure (SMILES) | growth at 0.1 µM [%]
CNC(=O)c1cc(Oc2ccc3nc(NC(=O)c4cc(C(F)(F)F)cc(C(F)(F)F)c4)sc3c2)ccn1 | 87

molecular target: CYP2D6 (Homo sapiens, UniProt P10635); experiment: Inhibition of recombinant human CYP2D6 assessed as remaining enzyme activity using CYP2D6 blue as substrate at 10 uM after 5 mins in presence of NADP by fluorescence plate reader analysis; format: ADME; conditions: recombinant human CYP2D6, probe CYP2D6 blue, read-out: Activity
Sequence (P10635 whole entry): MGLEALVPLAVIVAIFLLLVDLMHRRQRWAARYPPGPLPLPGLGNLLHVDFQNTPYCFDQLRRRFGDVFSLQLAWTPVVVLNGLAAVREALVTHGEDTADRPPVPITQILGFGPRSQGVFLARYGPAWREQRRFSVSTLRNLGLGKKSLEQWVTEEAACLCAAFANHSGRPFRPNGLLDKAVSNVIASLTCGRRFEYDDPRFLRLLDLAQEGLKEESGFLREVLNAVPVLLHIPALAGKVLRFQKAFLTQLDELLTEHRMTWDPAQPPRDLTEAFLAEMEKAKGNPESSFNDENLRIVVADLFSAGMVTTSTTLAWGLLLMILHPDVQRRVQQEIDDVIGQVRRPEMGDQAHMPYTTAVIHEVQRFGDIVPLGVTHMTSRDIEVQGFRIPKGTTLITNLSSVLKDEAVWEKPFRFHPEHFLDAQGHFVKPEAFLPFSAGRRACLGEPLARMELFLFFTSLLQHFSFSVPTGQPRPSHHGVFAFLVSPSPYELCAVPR

Structure (SMILES) | activity at 5 min, 10 µM [%]
CNC(=O)c1cc(Oc2ccc3nc(NC(=O)c4cc(C(F)(F)F)cc(C(F)(F)F)c4)sc3c2)ccn1 | 82.2

tested on: not listed separately; experiment: Antiproliferative activity against human SF539 cells assessed as cell growth at 10^-6 M after 48 hrs by sulforhodamine B assay; format: functional; conditions: SF-539, 48 h, read-out: Activity

Structure (SMILES) | growth at 1 µM [%]
CNC(=O)c1cc(Oc2ccc3nc(NC(=O)c4cc(C(F)(F)F)cc(C(F)(F)F)c4)sc3c2)ccn1 | 87
